Data: patent US6756368B1, “Use of cobalt chelates for treating or preventing virus infection” (The Trustees of Columbia University in the City of New York, priority 1999, dated 2004)

What was measured:
HSV = details: cited from earlier work
HSV-1 = test: Fractionation and in situ localization of virus DNA; format: cell-based, HSV-1 Glasgow strain 17; details: 100 μg/ml cycloheximide, 1 hpi

Row | Compound | HSV attachment / virus binding (HSV) | cell-to-cell spread of HSV (HSV) | virus DNA associated with the nuclear fraction versus no drug control (HSV-1) | step inhibited instead of binding (HSV)
1 | Cc1ccc(C(=O)Nc2ccc(S(=O)(=O)O)c3cc(S(=O)(=O)O)cc(S(=O)(=O)O)c23)cc1NC(=O)c1cccc(NC(=O)Nc2cccc(C(=O)Nc3cc(C(=O)Nc4ccc(S(=O)(=O)O)c5cc(S(=O)(=O)O)cc(S(=O)(=O)O)c45)ccc3C)c2)c1 [Sumarin] | able to block HSV attachment | able to inhibit cell-to-cell spread | – | –
2 | C[C@@H]1C[C@@H]([C@H](O)CC2CC(=O)NC(=O)C2)C(=O)[C@@H](C)C1 [cycloheximide, reference compound] | – | – | no effect on the amount of virus DNA associated with the nuclear fraction | –
3 | CCCCCCCCCCCCCCCCCCCCCCO [n-docosanol] | does not inhibit virus binding | – | – | fusion of the virus envelope with the cell's plasma membrane
4 | Heparin | can block attachment | – | – | –
